Measurements taken from paper PMC6013247, “Preclinical characterization of INCB053914, a novel pan-PIM kinase inhibitor, alone and in combination with anticancer agents, in models of hematologic malignancies” (PLoS ONE, 2018).

What was measured:
[1] = tested on: MOLM-16 (AML) xenografts; test: Tumor growth in MOLM-16 (AML) xenograft; format: in vivo, mouse
Experimental: Female immune compromised (severe combined immunodeficiency [SCID]) mice (5–9 weeks of age; Charles River Laboratories, Wilmington, Massachusetts) were inoculated with MOLM-16, KG-1, or KMS-12-BM cells. A cell suspension in Dulbecco’s phosphate-buffered saline (DPBS) (1 × 10^8 cells/ml) was mixed 1:1 (v/v) with matrigel, and 200 μl was injected subcutaneously into the flank of each mouse. Studies of INCB053914 combination regimens used xenograft models derived from INA-6 (MM) cells or Pfeiffer (DLBCL) cells. INA-6 tumor fragments were injected subcutaneously as brei (100 μl in Hank’s balanced salt solution [HBSS, 1:10 v/v]) into the flank of each mouse; Pfeiffer tumor fragments (1 cm × 1 cm) were directly implanted. The treatment of tumor-bearing mice started 7 to 24 days after tumor inoculation for efficacy studies and approximately 14 to 27 days after tumor inoculation for pharmacodynamic studies.
For efficacy studies, mice were sorted to obtain approximately equivalent mean tumor volumes in each group. The starting mean tumor volume in efficacy studies for all groups ranged from 158 mm^3 to 249 mm^3, and groups consisted of eight or nine animals. The mean tumor volume in pharmacodynamic studies for all groups ranged from 114 mm^3 to 833 mm^3, and groups consisted of three to eight animals. […]
Tumor volume was calculated in two dimensions using the equation: volume = [length × (width^2)] / 2, where the larger number was length and the smaller number was width. Effects on tumor growth were reported as percent tumor growth inhibition calculated as (1 − [treatment volume / control volume]) × 100, where control volume was the vehicle/untreated tumor volume on a given day and treatment volume was any treatment group tumor volume on that same day. Statistical significance of differences between treatment and vehicle controls was assessed using analysis of variance single factor test.

[2] = target: EPHA2 (Homo sapiens, UniProt P29317); test: Kinase selectivity panel; format: biochemical; conditions: [ATP] = 1 mM
Chain of EPHA2 (P29317 24-976): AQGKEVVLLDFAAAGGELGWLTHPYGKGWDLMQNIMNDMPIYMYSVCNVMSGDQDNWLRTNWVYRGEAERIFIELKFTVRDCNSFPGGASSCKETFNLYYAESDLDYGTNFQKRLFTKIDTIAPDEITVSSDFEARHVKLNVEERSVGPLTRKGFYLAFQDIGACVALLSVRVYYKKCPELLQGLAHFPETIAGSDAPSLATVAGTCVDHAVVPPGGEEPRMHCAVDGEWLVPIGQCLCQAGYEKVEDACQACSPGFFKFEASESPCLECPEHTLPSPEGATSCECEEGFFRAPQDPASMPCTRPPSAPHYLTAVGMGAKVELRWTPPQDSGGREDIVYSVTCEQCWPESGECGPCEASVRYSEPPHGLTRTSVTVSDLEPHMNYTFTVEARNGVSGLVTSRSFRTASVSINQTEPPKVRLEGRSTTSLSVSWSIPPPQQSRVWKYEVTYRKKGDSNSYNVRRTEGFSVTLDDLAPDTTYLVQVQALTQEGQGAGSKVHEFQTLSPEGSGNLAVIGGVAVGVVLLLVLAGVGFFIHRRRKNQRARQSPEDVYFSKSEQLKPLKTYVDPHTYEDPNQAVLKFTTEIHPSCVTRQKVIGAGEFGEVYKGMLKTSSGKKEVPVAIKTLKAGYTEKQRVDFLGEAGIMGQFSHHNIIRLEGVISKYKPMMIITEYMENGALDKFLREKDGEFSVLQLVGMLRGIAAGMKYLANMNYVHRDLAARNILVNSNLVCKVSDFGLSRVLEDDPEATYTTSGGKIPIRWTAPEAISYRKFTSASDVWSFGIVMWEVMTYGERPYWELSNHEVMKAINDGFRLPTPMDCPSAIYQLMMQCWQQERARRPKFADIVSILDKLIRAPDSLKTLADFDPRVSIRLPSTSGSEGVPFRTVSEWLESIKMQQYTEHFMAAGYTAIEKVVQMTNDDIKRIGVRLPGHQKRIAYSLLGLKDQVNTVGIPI

`C[C@H]1CN(c2c(NC(=O)c3ccc(F)c(-c4c(F)cccc4F)n3)cnc3c2CC[C@H]3O)C[C@@H](N)[C@@H]1O.O=P(O)(O)O` [INCB053914, N-((R)-4-((3R,4R,5S)-3-amino-4-hydroxy-5-methylpiperidin-1-yl)-7-hydroxy-6,7-dihydro-5H-cyclopenta[b]pyridin-3-yl)-6-(2,6-difluorophenyl)-5-fluoropicolinamide phosphate] was tested. Which “lowest dose at which tumor growth inhibition was apparent” value ([1]; MOLM-16 model) did it give?
Its value is 1 mg/kg.

What about the “maximal tumor growth inhibition” value ([1]; MOLM-16 tumors, 30 mg/kg twice a day orally) of the same compound?
Its value is 96%.

And the “mice with a partial regression (PR)” value ([1]; MOLM-16 tumors, 30 mg/kg twice a day, PR = ≥50% decrease in tumor volume vs treatment start, eight mice/group, 30 mg/kg)?
Its value is “six of eight”.

What about the IC50 [2] of the same compound?
The IC50 was > 20 µM.
